Data on 42 molecules can be found in patent publication US6949648B2, “Condensed pyrazole derivatives, process for producing the same and use thereof” (Takeda Pharmaceutical Company Limited, priority 2000, dated 2005).

As usually defined, the melting point is the temperature of the solid-liquid transition. For the molecule `Cc1nn(-c2cccc(Cl)n2)c2nc3ccccc3c(Cl)c12` [Example 2-109, 4-Chloro-1-(6-chloro-2-pyridinyl)-3-methyl-1H-pyrazolo[3,4-b]quinoline], the melting point lay in the range of 191 to 193 °C.
Consider `Cc1nn(-c2ccccn2)c2nc3cc(F)c(F)cc3c(Cl)c12` [Example 2-90, 4-Chloro-6,7-difluoro-3-methyl-1-(2-pyridinyl)-1H-pyrazolo[3,4-b]quinoline], for which the melting point lay within 175 to 176 °C.
On to `O=C(O)Cc1nn(-c2ccccn2)c2[nH]c3ccccc3c(=O)c12` [Example 2-177, 2-[4-Oxo-1-(2-pyridinyl)-4,9-dihydro-1H-pyrazolo[3,4-b]quinolin-3-yl]acetic acid], for which the melting point lay in the range of 229 to 231 °C.
Molecule `Cc1cc(C)nc(-n2nc(C)c3c(Cl)c4ccccc4nc32)n1` [Example 2-147, 4-Chloro-1-(4,6-dimethyl-2-pyrimidinyl)-3-methyl-1H-pyrazolo[3,4-b]quinoline] showed a melting point of 191 to 192 °C.
The molecule `Cc1nn(-c2ccccn2)c2nc3ccc(F)c(F)c3c(Cl)c12` [Example 2-88, 4-Chloro-5,6-difluoro-3-methyl-1-(2-pyridinyl)-1H-pyrazolo[3,4-b]quinoline] gave a melting point of 240 to 242 °C.
`CCc1nn(-c2ccccn2)c2nc3ccccc3c(N)c12.Cl` showed a melting point of 249 to 252 °C.
Take `CCOc1cccc(-n2nc(C)c3c(Cl)c4c(C)cccc4nc32)n1` [Example 2-121, 4-Chloro-3,5-dimethyl-1-(6-ethoxy-2-pyridinyl)-1H-pyrazolo[3,4-b]quinoline]: the melting point is 146 to 148 °C.
Take `Cc1nn(-c2ccccn2)c2ncc(C(=O)N(C)c3ccccc3)c(OCc3ccccc3)c12` [Example 1-17, 4-(Benzyloxy)-N,3-dimethyl-N-phenyl-1-(2-pyridinyl)-1H-pyrazolo[3,4-b]pyridine-5-carboxamide]: the melting point fell in the range of 92 to 93 °C.
The figure for `Clc1ccc2nc3c(cnn3-c3ccccn3)c(Cl)c2c1` [Example 2-160, 4,6-Dichloro-1-(2-pyridinyl)-1H-pyrazolo[3,4-b]quinoline] is 175 to 176 °C.
`Cc1nn(-c2nccs2)c2nc3ccccc3c(N)c12` [Example 2-150, 3-Methyl-1-(1,3-thiazol-2-yl)-1H-pyrazolo[3,4-b]quinolin-4-ylamine]: the melting point lay in the range of 261 to 263 °C.
For `CC(C)c1nn(-c2ccccn2)c2[nH]c3ccccc3c(=O)c12` [Example 2-173, 3-Isopropyl-1-(2-pyridinyl)-1,9-dihydro-4H-pyrazolo[3,4-b]quinolin-4-one], the melting point is 143 to 144 °C.
The molecule `CCc1nn(-c2ccccn2)c2nc3cc(F)c(F)cc3c(Cl)c12` [Example 2-200, 4-Chloro-3-ethyl-6,7-difluoro-1-(2-pyridinyl)-1H-pyrazolo[3,4-b]quinoline] gave a melting point of 160 to 161 °C.
For the molecule `CCOc1cccc(-n2nc(C)c3c(Cl)c4cccc(C)c4nc32)n1` [Example 2-128, 4-Chloro-3,8-dimethyl-1-(6-ethoxy-2-pyridinyl)-1H-pyrazolo[3,4-b]quinoline], the melting point lay within 151 to 153 °C.
`Cc1nn(-c2ccccn2)c2nc3ccccc3c(C(N)=O)c12` [Example 2-108, 3-Methyl-1-(2-pyridinyl)-1H-pyrazolo[3,4-b]quinoline-4-carboxamide]: the melting point is over 300 °C.
Regarding `Cc1nn(-c2ccccn2)c2nc3ccccc3c(C)c12` [Example 2-101, 3,4-Dimethyl-1-(2-pyridinyl)-1H-pyrazolo[3,4-b]quinoline], the melting point was in the range of 157 to 159 °C.
For `Cc1ccc(-n2nc(C)c3c(Cl)c4cccc(C)c4nc32)nc1` [Example 2-131, 4-Chloro-3,8-dimethyl-1-(5-methyl-2-pyridinyl)-1H-pyrazolo[3,4-b]quinoline], the melting point is 165 to 168 °C.
Consider `CSc1ccc2nc3c(c(C)nn3-c3ccccn3)c(Cl)c2c1` [Example 2-49, 4-Chloro-3-methyl-6-(methylsulfanyl)-1-(2-pyridinyl)-1H-pyrazolo[3,4-b]quinoline], for which the melting point came to 182 °C.
For the molecule `Cc1cccc2c(Cl)c3c(C)nn(-c4ccccn4)c3nc12` [Example 2-35, 4-Chloro-3,8-dimethyl-1-(2-pyridinyl)-1H-pyrazolo[3,4-b]quinoline], the melting point fell in the range of 170 to 172 °C.
The result for `Cc1nn(-c2ccccn2)c2[nH]c3cc(Cl)c(Cl)cc3c(=O)c12` [Example 2-76, 6,7-Dichloro-3-methyl-1-(2-pyridinyl)-1,9-dihydro-4H-pyrazolo[3,4-b]quinolin-4-one] reads 303 to 304 °C; that for `Cc1ccc(-n2nc(C)c3c(Cl)c4ccccc4nc32)nc1` [Example 2-115, 4-Chloro-3-methyl-1-(5-methyl-2-pyridinyl)-1H-pyrazolo[3,4-b]quinoline], 197 to 200 °C.
In turn, `Cc1nn(-c2ccccn2)c2nc3ccccc3c(N3CCOCC3)c12` [Example 2-11, 3-Methyl-4-(4-morpholinyl)-1-(2-pyridinyl)-1H-pyrazolo[3,4-b]quinoline] displayed a melting point of 203 to 205 °C.
`Clc1c2ccccc2nc2c1c(CBr)nn2-c1ccccn1` [Example 2-168, 3-Bromomethyl-4-chloro-1-(2-pyridinyl)-1H-pyrazolo[3,4-b]quinoline]: the melting point is 203 to 205 °C.
Molecule `Cc1nn(-c2ccccn2)c2nccc(OCc3ccccc3)c12` [Example 1-32, 4-(Benzyloxy)-3-methyl-1-(2-pyridinyl)-1H-pyrazolo[3,4-b]pyridine] came in with a melting point of 108 to 110 °C.
Molecule `Cc1nn(-c2ccc(Cl)cn2)c2[nH]c3ccccc3c(=O)c12` [Example 2-114, 1-(5-Chloro-2-pyridinyl)-3-methyl-1,9-dihydro-4H-pyrazolo[3,4-b]quinolin-4-one] showed a melting point of 262 to 263 °C.
Molecule `Cc1nn(-c2ccccn2)c2nc3ccccc3c(SC(C)C)c12` [Example 2-25, 4-(Isopropylsulfanyl)-3-methyl-1-(2-pyridinyl)-1H-pyrazolo[3,4-b]quinoline] came in with a melting point of 113 to 114 °C.
`Cc1nn(-c2ccccn2)c2[nH]c3cc(Cl)c(F)cc3c(=O)c12` [Example 2-97, 7-Chloro-6-fluoro-3-methyl-1-(2-pyridinyl)-1,9-dihydro-4H-pyrazolo[3,4-b]quinolin-4-one] returned a melting point of 264 to 265 °C.
In the case of `FC(F)(F)c1nn(-c2ccccn2)c2nc3ccccc3c(Cl)c12` [Example 2-166, 4-Chloro-1-(2-pyridinyl)-3-trifluoromethyl-1H-pyrazolo[3,4-b]quinoline], the melting point was 166 to 168 °C.
`CCCCc1c2ccccc2nc2c1c(C)nn2-c1ccccn1` [Example 2-104, 4-Butyl-3-methyl-1-(2-pyridinyl)-1H-pyrazolo[3,4-b]quinoline] showed a melting point of 102 to 103 °C.
Molecule `O=c1c2cnn(-c3ccccn3)c2[nH]c2cccc(F)c12` [Example 2-163, 5-Fluoro-1-(2-pyridinyl)-1,9-dihydro-4H-pyrazolo[3,4-b]quinolin-4-one] had a melting point of 278 to 281 °C.
Consider `Cc1nn(-c2nccs2)c2[nH]c3ccccc3c(=O)c12` [Example 2-151, 3-Methyl-1-(1,3-thiazol-2-yl)-1,9-dihydro-4H-pyrazolo[3,4-b]quinolin-4-one], for which the melting point fell in the range of 226 to 227 °C.
Consider `Cc1cccnc1-n1nc(C)c2c(Cl)c3ccccc3nc21` [Example 2-118, 4-Chloro-3-methyl-1-(3-methyl-2-pyridinyl)-1H-pyrazolo[3,4-b]quinoline], for which the melting point lay within 160 to 161 °C.
Turning to `Cc1nn(-c2ccccn2)c2nc(O)c3c(c12)CCCCC3` [Example 1-30, 1-Methyl-3-(2-pyridinyl)-3,6,7,8,9,10-hexahydrocyclohepta[d]pyrazolo[3,4-b]pyridin-5-ol], the melting point is 243 to 244 °C.
`Cc1nn(-c2ccccn2)c2ncc(C(=O)Nc3ccccc3F)c(O)c12` [Example 1-12, N-(2-Fluorophenyl)-4-hydroxy-3-methyl-1-(2-pyridinyl)-1H-pyrazolo[3,4-b]pyridine-5-carboxamide] had a melting point of over 300 °C.
The molecule `O=C(O)c1nn(-c2ccccn2)c2[nH]c3ccccc3c(=O)c12` [Example 2-181, 4-Oxo-1-(2-pyridinyl)-4,9-dihydro-1H-pyrazolo[3,4-b]quinoline-3-carboxylic acid] registered a melting point of 306 to 309 °C.
The result for `Cc1nn(-c2ccccn2)c2[nH]c3ccc([S+](C)[O-])cc3c(=O)c12` (stereo not drawn) [Example 2-51, 3-Methyl-6-(methylsulfinyl)-1-(2-pyridinyl)-1,9-dihydro-4H-pyrazolo[3,4-b]quinolin-4-one] reads 268 to 269 °C; that for `Cc1nn(-c2ccccn2)c2[nH]c3ccc(Cl)cc3c(=O)c12` [Example 2-72, 6-Chloro-3-methyl-1-(2-pyridinyl)-1,9-dihydro-4H-pyrazolo[3,4-b]quinolin-4-one], 254 to 255 °C; that for `CC(C)c1nn(-c2ccccn2)c2nc3ccccc3c(Cl)c12` [Example 2-172, 4-Chloro-3-isopropyl-1-(2-pyridinyl)-1H-pyrazolo[3,4-b]quinoline], 146 to 148 °C.
`CCCOc1c2cc(F)c(F)cc2nc2c1c(C)nn2-c1ccccn1` [Example 2-94, 6,7-Difluoro-3-methyl-4-propoxy-1-(2-pyridinyl)-1H-pyrazolo[3,4-b]quinoline] showed a melting point of 162 to 163 °C.
Molecule `CCc1c2ccccc2nc2c1c(C)nn2-c1ccccn1` [Example 2-102, 4-Ethyl-3-methyl-1-(2-pyridinyl)-1H-pyrazolo[3,4-b]quinoline] displayed a melting point of 112 to 114 °C.
For the molecule `Cc1nn(-c2ccncc2)c2[nH]c3cc(F)c(F)cc3c(=O)c12.Cl.Cl`, the melting point was in the range of 237 to 240 °C.
`CCOC(=O)c1nn(-c2ccccn2)c2nc3ccccc3c(Cl)c12` [Example 2-179, Ethyl 4-chloro-1-(2-pyridinyl)-1H-pyrazolo[3,4-b]quinoline-3-carboxylate] returned a melting point of 164 to 166 °C.
In turn, `CCOc1cccc(-n2nc(C)c3c(=O)c4cccc(C)c4[nH]c32)n1` [Example 2-130, 3,8-Dimethyl-1-(6-ethoxy-2-pyridinyl)-1,9-dihydro-4H-pyrazolo[3,4-b]quinolin-4-one] registered a melting point of 239 to 241 °C.
